Test [1] can be described thus: Binding affinity to Agglutinin was evaluated. Also noted: species or system Arachis hypogaea.
For a further test, the system named is Erythrina corallodendron. In words: Binding affinity to Erythrina corallodendron lectin was evaluated. Format: functional.
Test [2] is described as follows: Binding affinity to soybean agglutinin was evaluated. Also noted: species or system Glycine max.

In general, IC50 refers to the concentration needed to halve the response being measured. The low end stands for greater potency, the high end for weaker potency. As for `CC(=O)N[C@@H]1[C@H](Oc2cccc3ccccc23)O[C@@H](CO)[C@@H](O)[C@@H]1O`, the 50% inhibitory concentration (IC50) amounted to 1950 µM in test [1], 1510 µM in the test on Erythrina corallodendron and 1290 µM in test [2].

As for `CC(=O)N[C@@H]1[C@H](Oc2ccccc2)O[C@@H](CO)[C@@H](O)[C@@H]1O`, the IC50 in test [1] worked out at 2510 µM; in the test on Erythrina corallodendron, 1150 µM; in test [2] it was 1720 µM.

Source of the values: ChEMBL document CHEMBL1133491, “Synthesis and binding to plant lectins of sulfur-containing analogues of betaGal1,3 alphaGalNAc (T-antigen)” (Bioorg Med Chem Lett, 2000).
